Patent publication US6955873B1, “Diagnosis and treatment system for reward deficiency syndrome (RDS) and related behaviors” (priority 1999, dated 2005)
Entries after “also recorded” stand apart in the source; their conditions may differ. Where two headings read alike, the source gives them in different places.

What was measured:
animals and humans = conditions: cited from earlier work
[1] = system: subjects diagnosed with ADHD; conditions: study in the early 70's; cited from earlier work
adult albino rats = conditions: 10 day administration, 500 ng/kg per day with the drinking water; cited from earlier work
[2] = cited from earlier work; for duration of action: in vivo
animals and man = conditions: cited from earlier work; for analgesia: used separately
pain patients = conditions: cited from earlier work
[3] = system: spontaneously hypertensive rats (SHR); assay: Blood pressure in spontaneously hypertensive rats (SHR); conditions: rat, in vivo
Text: D-Phenylalanine was able to lower systolic blood pressure of these rats close to normal (average drop of 36.7 mm Hg). It is noteworthy that this effect is blocked by the narcotic antagonist and the effect on blood pressure is synergistic with the beta-blocker popranolol. Even more important is that the lowering of blood pressure by d-phenylalanine lasted several days.

humans [4] = assay: Blood pressure in humans; type: in vivo, human; conditions: single dose
mice [5] = conditions: animal tests; cited from earlier work
mu-opioid receptor = mu-opioid receptor (Mus musculus, UniProt P42866); conditions: spinal cord, wild-type mice; cited from earlier work
Sequence of mu-opioid receptor (P42866 whole entry): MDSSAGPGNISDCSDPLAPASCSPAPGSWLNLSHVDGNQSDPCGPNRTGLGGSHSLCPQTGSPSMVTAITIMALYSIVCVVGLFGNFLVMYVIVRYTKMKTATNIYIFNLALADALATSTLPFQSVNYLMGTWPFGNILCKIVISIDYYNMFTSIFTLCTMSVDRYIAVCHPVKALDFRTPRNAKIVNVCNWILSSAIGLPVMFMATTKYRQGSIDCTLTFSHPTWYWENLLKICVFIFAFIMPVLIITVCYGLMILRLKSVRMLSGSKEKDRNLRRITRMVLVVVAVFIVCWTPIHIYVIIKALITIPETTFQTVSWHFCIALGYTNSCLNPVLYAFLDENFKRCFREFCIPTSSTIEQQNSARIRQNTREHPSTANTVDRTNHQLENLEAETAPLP

animals [6] = conditions: cited from earlier work
neurons = conditions: cited from earlier work
mice [7] = conditions: cited from earlier work
mice [8] = conditions: cited from earlier work; remark: listed apart in the source
COMT = COMT (Homo sapiens, UniProt P21964); conditions: cited from earlier work
Sequence of COMT (P21964 whole entry, species assumed): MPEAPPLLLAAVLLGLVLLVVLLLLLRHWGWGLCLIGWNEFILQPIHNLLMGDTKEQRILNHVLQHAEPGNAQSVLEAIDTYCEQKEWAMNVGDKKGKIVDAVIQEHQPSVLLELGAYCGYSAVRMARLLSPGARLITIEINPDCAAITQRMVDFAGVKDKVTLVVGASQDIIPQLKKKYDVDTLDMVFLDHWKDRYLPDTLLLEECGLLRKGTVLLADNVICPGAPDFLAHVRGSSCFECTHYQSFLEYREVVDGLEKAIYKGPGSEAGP

MAO = conditions: cited from earlier work
[9] = system: Blood Brain Barrier (BBB); conditions: mice, vs saline controls, cited from earlier work
5-HTP decarboxylase = 5-HTP decarboxylase (Homo sapiens, UniProt P20711); conditions: cited from earlier work
Sequence of 5-HTP decarboxylase (P20711 whole entry): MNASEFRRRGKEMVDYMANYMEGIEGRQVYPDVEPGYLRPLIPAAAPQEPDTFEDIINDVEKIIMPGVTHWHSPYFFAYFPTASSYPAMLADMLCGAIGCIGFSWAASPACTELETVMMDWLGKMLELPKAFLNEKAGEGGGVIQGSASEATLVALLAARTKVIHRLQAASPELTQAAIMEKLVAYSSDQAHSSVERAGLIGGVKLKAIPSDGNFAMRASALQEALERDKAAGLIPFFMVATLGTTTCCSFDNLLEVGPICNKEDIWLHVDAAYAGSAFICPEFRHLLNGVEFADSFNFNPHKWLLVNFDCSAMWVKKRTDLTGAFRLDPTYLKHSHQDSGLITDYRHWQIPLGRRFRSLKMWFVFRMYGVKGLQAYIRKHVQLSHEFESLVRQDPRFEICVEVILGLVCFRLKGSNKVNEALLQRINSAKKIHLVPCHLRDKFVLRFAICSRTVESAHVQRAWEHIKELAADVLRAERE

brain of mice = conditions: cited from earlier work
[10] = system: allergy tested subjects with common cold; conditions: lozenges
animals [11] = conditions: cited from earlier work; for rewarding actions: dopamine receptor agonists
humans [12] = conditions: in vivo; cited from earlier work
alcoholics = conditions: in vivo; cited from earlier work
PMDD patients = conditions: 1200 mg of calcium; cited from earlier work
common cold = conditions: high dose supplementation; cited from earlier work
aminotripepidase = conditions: cited from earlier work
rhinovirus = conditions: reported 1974; cited from earlier work
[13] = system: patients with age-related memory disorders; conditions: certain patients; not substantiated by clinical trials; cited from earlier work
[14] = in vivo; cited from earlier work
[15] = system: synaptosomes in rat brain slices; conditions: cited from earlier work
swine = conditions: in vivo; cited from earlier work
cell culture = conditions: concentrations thousands of times higher than physiological levels; cited from earlier work
[16] = homozygous mu-opioid receptor knockout mice
[17] = wild type (and heterozygous) mice
[18] = mu-opioid receptor knockout mice

CC(C)CC(N)C(=O)O (racemic) [DL-leucine]
alcohol intake (animals and humans): significantly lowered

NC(Cc1ccccc1)C(=O)O (racemic) [DL-phenylalanine]
anxiety [1]: reduced anxiety
mood [1]: increased the mood
alcohol intake (animals and humans): significantly lowered

NC(=O)CC[C@H](N)C(=O)O [1-glutamine]
content of glutamate, GABA and taurine in the brain (adult albino rats): significant increase

Nc1c2c(nc3ccccc13)CCCC2 [Cognex]
duration of action [2]: 2 h

CC(C)C[C@@H](N)C(=O)O [D-leucine]
analgesia (animals and man; animals and man): excellent analgesia
alcohol intake (animals and humans): significantly lowered

N[C@H](Cc1ccccc1)C(=O)O [D-phenylalanine]
pain associated with osteo- and rheumatoid arthritis (pain patients; cross-over studies in humans): reduced pain
analgesia in patients reactive to approved analgesic drugs including opiates (pain patients; double-blind studies): induced analgesia
analgesic effects of acupuncture (pain patients; in vivo): enhance
average drop of systolic blood pressure [3]: 36.7 mm Hg
duration of lowering of blood pressure [3]: several days
effect on blood pressure in presence of narcotic antagonist [3]: blocked
effect on blood pressure with the beta-blocker popranolol [3]: synergistic
heart rate [3]: no change
systolic and diastolic blood pressure [3]: significantly lowered
effect on blood pressure in normotensive individuals (humans [4]): no effect
duration of blood pressure lowering (humans [4]; humans): one or more days
tolerance or addiction (animals and man; animals and man): without developing tolerance or addiction
duration of analgesia (animals and man; humans): very long-lasting
analgesia (animals and man; animals and man): excellent analgesia
alcohol intake (animals and humans): significantly lowered
anti-inflammatory character (mice [5]): exhibits anti-inflammatory character

C[C@@H](NC(=O)[C@@H](N)Cc1ccc(O)cc1)C(=O)NCC(=O)N(C)[C@@H](Cc1ccccc1)C(=O)NCCO [DAMGO]
[35S]GTPgammaS binding (mu-opioid receptor): concentration-dependent Increases

C/C=C1\[C@H]2C=C(C)C[C@]1(N)c1ccc(=O)[nH]c1C2 [Huperzine A]
time active ([2]; dose of 2 micrograms/kg): six hours
duration of action [2]: 3 h
difference between amounts effective for memory and learning and the non-toxic-effect dose (animals [6]; behavioral studies in animals): 30-100 fold
side effects (animals [6]; dose of 2 micrograms/kg): no remarkable side effects
glutamate-induced cellular death of neurons (neurons): blocked

CN1CC[C@]23c4c5ccc(O)c4O[C@H]2[C@@H](O)C=C[C@H]3[C@H]1C5 [Morphine]
withdrawal responses to mechanical stimuli (mice [7]; [16]): no significant effect
withdrawal responses to mechanical stimuli (mice [7]; [17]): dose-dependent reduction
writhing responses (mice [8]; [18]): ineffective
writhing responses (mice [8]; wild-type mice): effective

OC[C@H]1O[C@@H](OCCc2ccc(O)cc2)[C@H](O)[C@@H](O)[C@@H]1O [SAL, Salidosid]
COMT activity (COMT): inhibit; also recorded: inhibits COMT activity
MAO activity (MAO): inhibit; also recorded: decreases MAO activity
increase of the rise in serotonin ([9]; SAL 30 mg/Kg with 5-HTP 100 mg/kg): 13%
increase of the rise in exogenous DOPA ([9]; SAL 30 mg/Kg with L-Dopa 50 mg/kg): 26%
activity of 5-HTP decarboxylase (5-HTP decarboxylase): does not alter
disulfuram-induced decrease of NE in the brain (brain of mice; 30 mg/kg, animals): prevented
decrease of content of 5-HT (brain of mice; 30 mg/kg): 15%
decrease of content of NE (brain of mice; 30 mg/kg): 26%
decrease of concentration of Dopamine (brain of mice; 100 mg/kg): 28%
decrease of concentration of NE (brain of mice; 100 mg/kg): 20%
decrease of concentration of serotonin (brain of mice; 100 mg/kg): 23%
levels of epinephrine and DOPA (brain of mice; mouse, in vivo): did not alter

C=CCN1C[C@H](C)N([C@H](c2ccc(C(=O)N(CC)CC)cc2)c2cccc(OC)c2)C[C@H]1C [SNC8O]
writhing responses (mice [8]; [18]): ineffective
writhing responses (mice [8]; wild-type mice): effective

CC(=O)[O-].CC(=O)[O-].[Zn+2] [Zinc acetate]
duration of common cold symptoms [10]: significantly shortened
symptoms associated with allergies [10]: re3lieved

CN1CCc2cccc3c2[C@H]1Cc1ccc(O)c(O)c1-3 [apomorphine]
rewarding actions (animals [11]): have rewarding actions

CC(C)C[C@H]1C(=O)N2CCC[C@H]2[C@]2(O)O[C@](NC(=O)[C@@H]3C=C4c5cccc6[nH]c(Br)c(c56)C[C@H]4N(C)C3)(C(C)C)C(=O)N12 [bromocriptine]
short term memory (humans [12]): increase short term memory
reducing relapse rates as a function of dopamine D2 receptor genotype (alcoholics): selective positive effect
rewarding actions (animals [11]): have rewarding actions

[Ca+2] [calcium]
rate of reported symptoms relative to placebo (PMDD patients): fifty percent

O=C(CCCN1CCC(O)(c2ccc(Cl)cc2)CC1)c1ccc(F)cc1 [haloperidol]
alcohol and cocaine self-administration (animals [11]; animals): atenuate or block

O=C(O)CCc1ccccc1 [hydrocinnamic acid]
alcohol intake (animals and humans): significantly lowered

O=C1O[C@H]([C@@H](O)CO)C(O)=C1O [vitamin C]
decrease of incidence of the common cold (common cold): no evidence

[Zn+2] [zinc ions]
inhibition of aminotripepidase (aminotripepidase): potent inhibitor
rhinovirus replication (rhinovirus): inhibit

DPDPE
withdrawal responses to mechanical stimuli (mice [7]; [16]): not
withdrawal responses to mechanical stimuli (mice [7]; [17]): reduced

Huperzine
learning and memory [13]: improves learning and memory

Tyr-Arg [Kyotorphin]
analgesic activity [14]: analgesic
intracellular calcium [15]: enhance intracellular calcium

Tyr-D-arg
analgesic activity [14]: analgesic
intracellular calcium [15]: enhance intracellular calcium

methionine-enkephalin
blood flow in specific brain sites (basal ganglia, frontal cortex, hippocampus) (swine): enhancement of blood flow

trivalent chromium
chromosome breakage (cell culture): can break chromosomes
